Molecules are shown by their SMILES. Some results are limits rather than exact numbers.

As usually defined, the IC50 is the midpoint of a concentration-inhibition curve.

One test relates to phosphorylation of Serine 473 in Akt. Description: In Vitro Phospho-Ser473 Akt Assay in MDA-MB-468 cells. It is filed as cell-based. The settings on record: Homo sapiens, MDA-MB-468, read-out: IC50 values against mTOR, phospho-Ser473 Akt assay, MDA-MB-468 cells.
Regarding `COc1ccc(-c2ccc3c(N4CCOC[C@@H]4C)nc(N4CCOC[C@@H]4C)nc3n2)cc1CNCCc1cnc[nH]1` [Example 4be], the IC50 is less than 100 nM.
Still for that read-out and setting: then `COc1ccc(-c2ccc3c(N4CCOC[C@@H]4C)nc(N(CCO)CCO)nc3n2)cc1CO` [Example 18ck], with less than 100 nM.
Same read-out and setting: next, `C[C@H]1COCCN1c1nc(N2CCOC[C@@H]2C)c2ccc(-c3cccc(Cn4ccnc4)c3)nc2n1` [Example 4q]: less than 300 nM; `COC(=O)c1cc(-c2ccc3c(N4CCOC[C@@H]4C)nc(N4CCOC[C@@H]4C)nc3n2)ccc1OC` [Example 1bg]: less than 100 nM.
Same read-out and setting: then `COc1ccc(-c2ccc3c(N4CCOC[C@@H]4C)nc(N[C@H](C)CO)nc3n2)cc1CO` [Example 18bw], with less than 100 nM.
For the compound `C[C@H]1COCCN1c1nc(N2CCOC[C@@H]2C)c2ccc(-c3ccc(CNCC4CC4)o3)nc2n1` [Example 7g], the IC50 was less than 100 nM.
The same measure, in the same setting: then `COc1ccc(-c2ccc3c(N4CCOC[C@@H]4C)nc(N4CCOC[C@@H]4C)nc3n2)cc1CNC1CCCCC1` [Example 4ao], with less than 100 nM.
With `COc1ccc(-c2ccc3c(N4CCOC[C@@H]4C)nc(N4CCOC[C@@H]4C)nc3n2)cc1` [Example 1bo], the IC50 was less than 300 nM.
The same measure, in the same setting: then `C[C@H]1COCCN1c1nc(N2CCOC[C@@H]2C)c2ccc(-c3cccc(C(=O)NCC(F)F)c3)nc2n1` [Example 3l], with less than 100 nM.
The same measure, in the same setting: next, `CC(C)N(C)Cc1cc(-c2ccc3c(N4CCOC[C@@H]4C)nc(N4CCOC[C@@H]4C)nc3n2)ccc1F` [Example 4ai]: less than 100 nM; `COc1ccc(-c2ccc3c(N4CCOC[C@@H]4C)nc(N4CCOC[C@@H]4C)nc3n2)cc1CNCC1CC1` [Example 4ax]: less than 100 nM; `COC(=O)[C@@H]1CCCN1c1nc(N2CCOC[C@@H]2C)c2ccc(-c3ccc(OC)c(CO)c3)nc2n1` [Example 18ah]: less than 100 nM.
On the same count and under the same terms, next, `COc1ccc(-c2ccc3c(N4CCOC[C@@H]4C)nc(N4CCCCO4)nc3n2)cc1CO` [Example 18dd]: less than 300 nM; `CNCCOc1nc(N2CCOC[C@@H]2C)c2ccc(-c3ccc(OC)c(CO)c3)nc2n1` [Example 18db]: less than 100 nM; `C[C@H]1COCCN1c1nc(N2CCOC[C@@H]2C)c2ccc(-c3cccc(C(N)=O)c3)nc2n1` [Example 1as]: less than 100 nM.
As to `COc1ccc(-c2ccc3c(N4CCOC[C@@H]4C)nc(N4C[C@@H](C)O[C@@H](C)C4)nc3n2)cc1` [Example 1cj], the IC50 is less than 300 nM.
Turning to `COc1ccc(-c2ccc3c(N4CCOC[C@@H]4C)nc(N4CCC(C(N)=O)CC4)nc3n2)cc1CO` [Example 18v], the IC50 is less than 100 nM.
Regarding `COc1ccc(-c2ccc3c(N4CCOC[C@@H]4C)nc(NC(C)CC(C)C)nc3n2)cc1CO` (some centres unmarked) [Example 18av], the IC50 is less than 300 nM.
On the same count and under the same terms, then `C[C@H]1COCCN1c1nc(N2CCOC[C@@H]2C)c2ccc(-c3ccc(F)c(CN(C)C)c3)nc2n1` [Example 4af], with less than 100 nM.
On the same count and under the same terms, then `COc1ccc(-c2ccc3c(N4CCOC[C@@H]4C)nc(N4CCNC(=O)C4)nc3n2)cc1CO` [Example 18cf], with less than 100 nM; and `COCC(=O)N(C)Cc1ccc(-c2ccc3c(N4CCOC[C@@H]4C)nc(N4CCOC[C@@H]4C)nc3n2)cc1` [Example 5s], with less than 300 nM; and `C[C@H]1COCCN1c1nc(N2CCOC[C@@H]2C)c2ccc(-c3cccc(CN(C)C(=O)C(F)(F)F)c3)nc2n1` [Example 5n], with less than 300 nM.
On the same count and under the same terms, then `COc1ccc(-c2ccc3c(N4CCOC[C@@H]4C)nc(N4CCC[C@H](O)C4)nc3n2)cc1CO` [Example 18bj], with less than 100 nM; and `CCN(CC)CCCNCc1cc(-c2ccc3c(N4CCOC[C@@H]4C)nc(N4CCOC[C@@H]4C)nc3n2)ccc1OC` [Example 4av], with less than 300 nM; and `CCOC(=O)C1CCN(c2nc(N3CCOC[C@@H]3C)c3ccc(-c4ccc(OC)c(CO)c4)nc3n2)CC1` [Example 18u], with less than 100 nM.
Take `COc1ccc(-c2ccc3c(N4CCOC[C@@H]4C)nc(Nc4ccccn4)nc3n2)cc1CO` [Example 18p]: the IC50 was less than 300 nM.
The same measure, in the same setting: then `COc1ccc(-c2ccc3c(N4CCOC[C@@H]4C)nc(N4CCOC[C@@H]4C)nc3n2)cc1CNCC(C)C` [Example 4az], with less than 100 nM; and `COc1ccc(-c2ccc3c(N4CCOC[C@@H]4C)nc(N4CC[C@@H](O)C4)nc3n2)cc1CO` [Example 18bn], with less than 100 nM; and `COc1ccc(CCNCc2cc(-c3ccc4c(N5CCOC[C@@H]5C)nc(N5CCOC[C@@H]5C)nc4n3)ccc2OC)cc1` [Example 4bd], with less than 100 nM.
Still for that read-out and setting: then `COc1ccc(-c2ccc3c(N4CCOC[C@@H]4C)nc(N4CCOC[C@@H]4C)nc3n2)cc1CNC(C)CC(C)C` (some centres unmarked) [Example 4au], with less than 100 nM.
On the same count and under the same terms, next, `COc1ccc(-c2ccc3c(N4CCOC[C@@H]4C)nc(N4CCC(O)(c5ccccc5)CC4)nc3n2)cc1CO` [Example 18am]: less than 100 nM; `CC(C)NCc1cc(-c2ccc3c(N4CCOC[C@@H]4C)nc(N4CCOC[C@@H]4C)nc3n2)ccc1F` [Example 4w]: less than 100 nM; `C[C@@H]1CN(c2nc(N3CCOC[C@@H]3C)c3ccc(-c4ccc(Cl)cc4)nc3n2)C[C@H](C)O1` [Example 18dh]: less than 300 nM.
`COc1ccc(-c2ccc3c(N4CCOC[C@@H]4C)nc(N4CCOC[C@@H]4C)nc3n2)cc1CNC1CCCCC1C` (some centres unmarked) [Example 4aw]: the IC50 is less than 100 nM.
For `C[C@H]1COCCN1c1nc(N2CCOC[C@@H]2C)c2ccc(-c3ccc(O)cc3)nc2n1` [Example 1e], the IC50 is less than 100 nM.
On the same count and under the same terms, next, `COc1ccc(-c2ccc3c(N4CCOC[C@@H]4C)nc(N4CCC(C(=O)c5ccc(Cl)cc5)CC4)nc3n2)cc1CO` [Example 18ak]: less than 100 nM; `COc1ccc(-c2ccc3c(N4CCOC[C@@H]4C)nc(N4CCCCC4)nc3n2)cc1CO` [Example 18c]: less than 100 nM.
On the same count and under the same terms, then `C[C@@H]1CN(c2nc(N3CCOC[C@@H]3C)c3ccc(-c4ccsc4)nc3n2)C[C@H](C)O1` [Example 1k], with less than 100 nM.
Same read-out and setting: then `COc1ccc(-c2ccc3c(N4CCOC[C@@H]4C)nc(N4CCC(C(F)(F)F)CC4)nc3n2)cc1CO` [Example 18af], with less than 300 nM.
Take `C[C@H]1COCCN1c1nc(N2CCOC[C@@H]2C)c2ncc(-c3ccccc3)nc2n1` [Example 12d]: the IC50 is less than 300 nM.
The same measure, in the same setting: next, `C[C@H]1COCCN1c1nc(N2CCOC[C@@H]2C)c2ccc(-c3cccnc3F)nc2n1` [Example 1p]: less than 300 nM; `COc1ccc(-c2ccc3c(N4CCOC[C@@H]4C)nc(N4CCNC(=O)C4C)nc3n2)cc1CO` (some centres unmarked) [Example 18co]: less than 100 nM; `COCc1cccc(-c2ccc3c(N4CCOC[C@@H]4C)nc(N4CCOC[C@@H]4C)nc3n2)c1` [Example 1bb]: less than 100 nM.
Same read-out and setting: next, `COc1ccc(-c2ccc3c(N4CCOC[C@@H]4C)nc(N4CCOC[C@@H]4C)nc3n2)cc1CNCCO` [Example 4ba]: less than 100 nM; `COc1ccc(-c2ccc3c(N4CCOC[C@@H]4C)nc(NC(CO)CO)nc3n2)cc1CO` [Example 18cd]: less than 300 nM.
Still for that read-out and setting: next, `C[C@H]1COCCN1c1nc(N2CCOC[C@@H]2C)c2ccc(-c3cccc(CNCC4CC4)c3)nc2n1` [Example 4n]: less than 100 nM.
As for `CCNc1nc(N2CCOC[C@@H]2C)c2ccc(-c3ccc(OC)c(CO)c3)nc2n1` [Example 18bq], the IC50 was less than 300 nM.
Take `COc1ccc(-c2ccc3c(N4CCOC[C@@H]4C)nc(N4CCC[C@@H]4CO)nc3n2)cc1CO` [Example 18cm]: the half-maximal inhibitory concentration (IC50) was less than 100 nM.
Same read-out and setting: then `C[C@H]1COCCN1c1nc(N2CCOC[C@@H]2C)c2ccc(-c3ccc(CO)cc3)nc2n1` [Example 1g], with less than 100 nM; and `COc1ccc(-c2ccc3c(N4CCOC[C@@H]4C)nc(N4CCOC(c5ccccc5)C4)nc3n2)cc1CO` (some centres unmarked) [Example 18bf], with less than 300 nM; and `COc1ccc(-c2ccc3c(N4CCOC[C@@H]4C)nc(NC4CCCC4)nc3n2)cc1CO` [Example 18aw], with less than 100 nM.

Staying with this test, now noted: Homo sapiens, MDA-MB-468, read-out: IC50 values against mTOR, phospho-Ser473 Akt assay, MDA-MB-468 cells, upper bound.
`C[C@H]1COCCN1c1nc(N2CCOC[C@@H]2C)c2ccc(-c3ccc(CNCC(N)=O)o3)nc2n1` [Example 7j]: the IC50 is less than 1000 nM.
Regarding `C[C@H]1COCCN1c1nc(N2CCOC[C@@H]2C)c2ccc(-c3ccc4nc[nH]c(=O)c4c3)nc2n1` [Example 1cl], the IC50 is less than 1000 nM.
On the same count and under the same terms, next, `Cc1ccc(-c2cnc3c(N4CCOC[C@@H]4C)nc(N4C[C@@H](C)O[C@@H](C)C4)nc3n2)cc1` [Example 12b]: less than 1000 nM; `COc1ccc(-c2ccc3c(N4CCOC[C@@H]4C)nc(-c4cccc(C(F)(F)F)c4)nc3n2)cc1CO` [Example 19m]: less than 1000 nM; `C[C@H]1COCCN1c1nc(N2CCOC[C@@H]2C)c2ccc(-c3ccnc(F)c3)nc2n1` [Example 1au]: less than 1000 nM.
Take `C[C@H]1COCCN1c1nc(N2CCOC[C@@H]2C)c2ccc(-c3cccc(C(=O)NCC(F)(F)F)c3)nc2n1` [Example 3f]: the IC50 is less than 1000 nM.
Still for that read-out and setting: then `C[C@H]1COCCN1c1nc(N2CCOC[C@@H]2C)c2ccc(-c3ccncc3)nc2n1` [Example 1ar], with less than 1000 nM; and `COc1ccc(-c2ccc3c(N4CCOC[C@@H]4C)nc(-c4cccc(C)c4)nc3n2)cc1CO` [Example 19n], with less than 1000 nM.
The same measure, in the same setting: next, `COCc1cccc(-c2nc(N3CCOC[C@@H]3C)c3ccc(-c4ccc(OC)c(CO)c4)nc3n2)c1` [Example 19l]: less than 1000 nM; `COc1ccc(-c2ccc3c(N4CCOC[C@@H]4C)nc(N4CCC5CCCCC5C4)nc3n2)cc1CO` (some centres unmarked) [Example 18ag]: less than 1000 nM; `C[C@H]1COCCN1c1nc(N2CCCC(CO)C2)nc2nc(-c3cccc(C(N)=O)c3)ccc12` (some centres unmarked) [Example 2d]: less than 1000 nM.
The same measure, in the same setting: then `COc1cncc(-c2nc(N3CCOC[C@@H]3C)c3ccc(-c4cccc(CO)c4)nc3n2)c1` [Example 19s], with less than 1000 nM; and `COc1ccc(-c2ccc3c(N4CCOC[C@@H]4C)nc(Nc4cccnc4)nc3n2)cc1CO` [Example 18o], with less than 1000 nM; and `COc1ccc(-c2ccc3c(N4CCOC[C@@H]4C)nc(N4CCC(Cc5ccccc5)CC4)nc3n2)cc1CO` [Example 18al], with less than 1000 nM.

The values above are taken from patent publication US9102670B2, “Pyrido-, pyrazo- and pyrimido-pyrimidine derivatives as mTOR inhibitors” (KuDOS Pharmaceuticals Limited, priority 2006, dated 2015).
